The text below walks through data of the Kinase Knowledgebase extract (Sharma et al. 2016).

One assay concerns the target PIK3CA (human) (UniProt P42336). The assay is described as follows: Assessment of PI3KCA Kinase Activity.
A further assay has as its target PIK3CD (Human) (UniProt O00329). The assay is described as follows: Assessment of PI3KCD Kinase Activity.
The target in a further assay is PIK3CG (human) (UniProt P48736). The assay is described as follows: Assessment of PI3KCG Kinase Activity.
Sequence of PIK3CG (human) (P48736 whole entry, looked up): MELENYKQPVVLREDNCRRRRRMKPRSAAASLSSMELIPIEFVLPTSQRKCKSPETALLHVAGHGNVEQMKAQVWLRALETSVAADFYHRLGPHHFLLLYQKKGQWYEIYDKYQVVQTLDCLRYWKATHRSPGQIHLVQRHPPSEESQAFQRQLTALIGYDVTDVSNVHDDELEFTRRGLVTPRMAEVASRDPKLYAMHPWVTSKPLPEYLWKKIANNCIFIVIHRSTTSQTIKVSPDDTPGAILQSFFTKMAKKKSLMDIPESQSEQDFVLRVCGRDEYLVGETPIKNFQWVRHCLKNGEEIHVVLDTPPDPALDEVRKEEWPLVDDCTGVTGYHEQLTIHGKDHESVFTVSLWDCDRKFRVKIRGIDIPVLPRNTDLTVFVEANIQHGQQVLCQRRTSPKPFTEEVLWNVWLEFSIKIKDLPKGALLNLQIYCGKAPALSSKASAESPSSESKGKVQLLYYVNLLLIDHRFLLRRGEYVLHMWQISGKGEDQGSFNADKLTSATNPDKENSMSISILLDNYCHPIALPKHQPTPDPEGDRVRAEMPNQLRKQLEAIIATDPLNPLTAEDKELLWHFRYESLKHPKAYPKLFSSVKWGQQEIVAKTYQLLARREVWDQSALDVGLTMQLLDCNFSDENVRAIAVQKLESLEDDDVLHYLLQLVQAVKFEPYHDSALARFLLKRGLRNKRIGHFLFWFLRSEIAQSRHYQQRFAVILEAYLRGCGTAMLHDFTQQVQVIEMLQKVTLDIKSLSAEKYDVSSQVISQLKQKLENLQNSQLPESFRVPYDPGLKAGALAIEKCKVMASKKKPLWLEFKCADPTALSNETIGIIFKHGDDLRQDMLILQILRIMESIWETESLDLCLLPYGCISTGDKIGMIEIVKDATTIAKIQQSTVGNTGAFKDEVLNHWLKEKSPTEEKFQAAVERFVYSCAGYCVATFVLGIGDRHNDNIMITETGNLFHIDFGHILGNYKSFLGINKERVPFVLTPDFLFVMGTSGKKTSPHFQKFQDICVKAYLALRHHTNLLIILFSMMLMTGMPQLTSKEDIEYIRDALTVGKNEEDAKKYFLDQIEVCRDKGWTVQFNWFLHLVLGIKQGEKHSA
In a further assay the target is PIK3CB (Human) (UniProt P42338). The assay is described as follows: Assessment of PI3KCB Kinase Activity.
Sequence of PIK3CB (Human) (P42338 whole entry, looked up): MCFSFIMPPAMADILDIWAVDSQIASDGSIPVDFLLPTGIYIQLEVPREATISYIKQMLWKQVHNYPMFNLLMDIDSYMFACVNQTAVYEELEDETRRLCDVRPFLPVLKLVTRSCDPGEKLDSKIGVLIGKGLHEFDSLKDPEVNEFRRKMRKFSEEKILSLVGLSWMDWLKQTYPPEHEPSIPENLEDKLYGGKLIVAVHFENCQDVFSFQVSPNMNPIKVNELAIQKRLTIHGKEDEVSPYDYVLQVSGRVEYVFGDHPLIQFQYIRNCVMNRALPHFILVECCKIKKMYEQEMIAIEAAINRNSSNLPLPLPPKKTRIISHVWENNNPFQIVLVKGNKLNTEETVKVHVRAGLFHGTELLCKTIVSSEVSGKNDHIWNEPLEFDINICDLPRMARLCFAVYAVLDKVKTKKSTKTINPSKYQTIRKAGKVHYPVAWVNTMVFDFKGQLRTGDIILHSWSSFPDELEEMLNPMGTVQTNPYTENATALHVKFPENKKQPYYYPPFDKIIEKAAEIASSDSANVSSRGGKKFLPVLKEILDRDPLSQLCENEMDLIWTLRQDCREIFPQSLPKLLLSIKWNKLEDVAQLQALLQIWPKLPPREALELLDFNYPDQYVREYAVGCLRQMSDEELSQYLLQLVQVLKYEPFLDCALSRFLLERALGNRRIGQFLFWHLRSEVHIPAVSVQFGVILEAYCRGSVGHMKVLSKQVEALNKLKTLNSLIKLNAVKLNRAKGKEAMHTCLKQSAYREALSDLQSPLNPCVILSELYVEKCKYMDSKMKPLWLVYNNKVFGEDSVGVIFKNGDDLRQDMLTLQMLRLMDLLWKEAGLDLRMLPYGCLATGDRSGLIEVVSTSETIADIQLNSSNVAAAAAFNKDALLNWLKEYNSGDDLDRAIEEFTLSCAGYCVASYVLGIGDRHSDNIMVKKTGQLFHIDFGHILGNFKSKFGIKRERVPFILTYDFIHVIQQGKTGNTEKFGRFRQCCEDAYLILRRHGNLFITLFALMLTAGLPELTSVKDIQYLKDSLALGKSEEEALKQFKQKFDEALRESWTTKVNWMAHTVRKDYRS

The IC50 is the concentration needed to halve the response being measured. Lower therefore signals greater potency.

Sequence of PIK3CD (Human) (O00329 whole entry, looked up): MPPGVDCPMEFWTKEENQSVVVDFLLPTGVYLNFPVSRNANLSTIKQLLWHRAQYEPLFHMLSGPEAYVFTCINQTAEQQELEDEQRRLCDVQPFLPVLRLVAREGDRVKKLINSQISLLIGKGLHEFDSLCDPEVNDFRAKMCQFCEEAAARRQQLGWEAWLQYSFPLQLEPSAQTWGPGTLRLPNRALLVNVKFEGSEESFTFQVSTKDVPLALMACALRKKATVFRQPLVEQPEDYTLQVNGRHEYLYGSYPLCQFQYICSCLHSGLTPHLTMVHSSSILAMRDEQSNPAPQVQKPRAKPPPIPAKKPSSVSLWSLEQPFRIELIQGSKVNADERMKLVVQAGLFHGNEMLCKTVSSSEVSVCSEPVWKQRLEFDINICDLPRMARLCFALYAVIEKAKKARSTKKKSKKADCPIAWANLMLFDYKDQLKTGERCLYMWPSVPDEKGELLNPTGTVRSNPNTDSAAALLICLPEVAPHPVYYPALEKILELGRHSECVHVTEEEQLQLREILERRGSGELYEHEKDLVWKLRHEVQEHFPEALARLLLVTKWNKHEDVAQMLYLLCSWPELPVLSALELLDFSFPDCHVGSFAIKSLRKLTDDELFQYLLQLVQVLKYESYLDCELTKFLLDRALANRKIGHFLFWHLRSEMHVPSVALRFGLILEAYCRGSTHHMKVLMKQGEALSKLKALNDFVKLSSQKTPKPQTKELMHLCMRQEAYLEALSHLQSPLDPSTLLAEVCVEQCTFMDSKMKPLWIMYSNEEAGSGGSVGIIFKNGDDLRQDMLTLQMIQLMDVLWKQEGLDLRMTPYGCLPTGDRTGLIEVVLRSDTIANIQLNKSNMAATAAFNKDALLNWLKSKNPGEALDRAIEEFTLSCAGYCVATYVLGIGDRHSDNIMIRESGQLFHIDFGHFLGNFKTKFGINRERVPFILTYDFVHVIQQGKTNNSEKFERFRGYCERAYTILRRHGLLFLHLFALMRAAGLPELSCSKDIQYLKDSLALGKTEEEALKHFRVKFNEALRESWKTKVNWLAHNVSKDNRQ
Sequence of PIK3CA (human) (P42336 whole entry, looked up): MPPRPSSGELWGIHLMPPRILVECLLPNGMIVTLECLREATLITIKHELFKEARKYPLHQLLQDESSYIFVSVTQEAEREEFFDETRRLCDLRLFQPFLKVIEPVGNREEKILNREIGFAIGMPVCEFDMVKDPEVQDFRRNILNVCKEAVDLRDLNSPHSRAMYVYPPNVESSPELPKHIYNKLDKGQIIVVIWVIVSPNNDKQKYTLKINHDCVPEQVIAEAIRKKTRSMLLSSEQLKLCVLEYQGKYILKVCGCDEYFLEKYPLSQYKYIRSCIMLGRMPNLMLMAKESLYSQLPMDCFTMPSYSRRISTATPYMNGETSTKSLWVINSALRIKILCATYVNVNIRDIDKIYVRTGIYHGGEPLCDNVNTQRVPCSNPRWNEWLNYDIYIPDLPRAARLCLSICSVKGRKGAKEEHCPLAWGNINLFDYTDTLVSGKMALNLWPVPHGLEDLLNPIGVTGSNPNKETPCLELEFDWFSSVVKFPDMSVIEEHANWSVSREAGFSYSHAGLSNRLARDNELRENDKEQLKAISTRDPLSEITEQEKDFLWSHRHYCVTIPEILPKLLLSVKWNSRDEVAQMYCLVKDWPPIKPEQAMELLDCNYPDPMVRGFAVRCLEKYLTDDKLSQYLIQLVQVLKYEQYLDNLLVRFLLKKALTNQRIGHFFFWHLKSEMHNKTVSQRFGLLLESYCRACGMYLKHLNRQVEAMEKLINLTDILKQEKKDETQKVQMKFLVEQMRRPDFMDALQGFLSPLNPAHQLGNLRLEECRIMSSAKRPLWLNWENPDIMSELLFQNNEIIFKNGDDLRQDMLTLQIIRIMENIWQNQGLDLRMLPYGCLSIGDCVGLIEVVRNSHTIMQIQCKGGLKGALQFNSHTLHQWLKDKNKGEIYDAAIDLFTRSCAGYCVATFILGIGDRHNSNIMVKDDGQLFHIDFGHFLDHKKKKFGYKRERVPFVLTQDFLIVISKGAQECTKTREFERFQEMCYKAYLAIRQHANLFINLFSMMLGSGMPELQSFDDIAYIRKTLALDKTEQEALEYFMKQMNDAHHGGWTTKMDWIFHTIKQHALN

As for `CC(=O)Nc1nc2ccc(-c3nn(Cc4cc5cccc(F)c5c(=O)n4C(C)C)c4ncnc(N)c34)cc2s1`, the IC50 at PIK3CA (human) and on PIK3CD (Human) was less than 100 nM each time.

Take `Nc1ncnc2c1c(-c1cc(O)cc(F)c1)nn2Cc1cc2cccc(Cl)c2c(=O)n1C1CC1`: the 50% inhibitory concentration (IC50) against PIK3CG (human), against PIK3CA (human), at PIK3CD (Human) and at PIK3CB (Human) was less than 100 nM each time.

Turning to `Cc1cccc2cc(Cn3nc(-c4cc(O)cc(F)c4)c4c(N)ncnc43)n(C3CC3)c(=O)c12`, the half-inhibitory concentration (IC50) against PIK3CG (human), against PIK3CD (Human) and against PIK3CB (Human) was less than 100 nM each time.

In the case of `CCn1c(Cn2nc(-c3ccc4nc(NC(C)=O)sc4c3)c3c(N)ncnc32)cc2cccc(C)c2c1=O`, the IC50 at PIK3CG (human), against PIK3CA (human) and against PIK3CD (Human) was less than 100 nM in each case.

`CC(=O)Nc1nc2ccc(-c3nn(Cc4cc5cccc(C)c5c(=O)n4C4CCC4)c4ncnc(N)c34)cc2s1`: the IC50 against PIK3CA (human) and against PIK3CD (Human) was less than 100 nM each time.

Turning to `CC(=O)Nc1nc2ccc(-c3nn(Cc4cc5cccc(Cl)c5c(=O)n4C(C)C)c4ncnc(N)c34)cc2s1`, the 50% inhibitory concentration (IC50) on PIK3CA (human), against PIK3CD (Human) and on PIK3CB (Human) was less than 100 nM in each case.

Regarding `Cc1ccccc1-n1c(Cn2nc(-c3ccc4nc(N)ncc4c3)c3c(N)ncnc32)cc2cccc(C)c2c1=O`, the half-maximal inhibitory concentration (IC50) against PIK3CG (human), on PIK3CA (human) and at PIK3CD (Human) was less than 100 nM in each case.

`CNC(=O)Nc1nc2ccc(-c3nn(Cc4cc5cccc(C)c5c(=O)n4-c4ccccc4C)c4ncnc(N)c34)cc2s1`: the half-inhibitory concentration (IC50) on PIK3CG (human), at PIK3CA (human) and at PIK3CD (Human) was less than 100 nM each time.

Turning to `CC(=O)Nc1nc2ccc(-c3nn(Cc4cc5cccc(C)c5c(=O)n4C(C)C)c4ncnc(N)c34)cc2s1`, the IC50 against PIK3CA (human) and against PIK3CD (Human) was less than 100 nM throughout.

For the molecule `CC(=O)Nc1nc2ccc(-c3nn(Cc4cc5cccc(Cl)c5c(=O)n4C4CC4)c4ncnc(N)c34)cc2s1`, the IC50 against PIK3CA (human), against PIK3CD (Human) and at PIK3CB (Human) was less than 100 nM throughout.

Turning to `CC(=O)Nc1nc2ccc(-c3nn(Cc4cc5cccc(C)c5c(=O)n4C)c4ncnc(N)c34)cc2s1`, the IC50 against PIK3CA (human) and against PIK3CD (Human) was less than 100 nM throughout.

Consider `Cc1cccc2cc(Cn3nc(C#C[C@@H](C)O)c4c(N)ncnc43)n(-c3ccccc3C(C)C)c(=O)c12`, for which the IC50 against PIK3CG (human) and against PIK3CD (Human) was less than 100 nM each time.

As for `CCc1ccccc1-n1c(Cn2nc(Br)c3c(N)ncnc32)nc2scc(C)c2c1=O`, the IC50 at PIK3CG (human) and against PIK3CD (Human) was less than 100 nM each time.

With `Cc1csc2nc(Cn3nc(Br)c4c(N)ncnc43)n(-c3ccccc3C(C)C)c(=O)c12`, the IC50 against PIK3CG (human) and at PIK3CD (Human) was less than 100 nM throughout.

As to `Cc1ccccc1-n1c(Cn2nc(-c3cnc4[nH]ccc4c3)c3c(N)ncnc32)cc2cccc(C)c2c1=O`, the 50% inhibitory concentration (IC50) at PIK3CG (human) and on PIK3CD (Human) was less than 100 nM in each case.

For the molecule `Cc1csc2nc(Cn3nc(C#C[C@@H](C)O)c4c(N)ncnc43)n(-c3ccccc3F)c(=O)c12`, the IC50 against PIK3CG (human) and at PIK3CD (Human) was less than 100 nM in each case.

For `Cc1cccnc1-n1c(Cn2nc(-c3ccc(Cl)c(O)c3)c3c(N)ncnc32)cc2cccc(C)c2c1=O`, the concentration for half-maximal inhibition (IC50) on PIK3CG (human) and at PIK3CD (Human) was less than 100 nM each time.

`Cc1cccc2cc(Cn3nc(-c4cccc(O)c4)c4c(N)ncnc43)n(-c3ccccc3O)c(=O)c12`: the half-inhibitory concentration (IC50) against PIK3CG (human) and at PIK3CD (Human) was less than 100 nM in each case.

On to `Cc1ccccc1-n1c(Cn2nc(-c3ccc(F)c(O)c3)c3c(N)ncnc32)cc2ccccc2c1=O`, for which the IC50 against PIK3CG (human) and at PIK3CD (Human) was less than 100 nM each time.

Take `Cc1csc2nc(Cn3nc(-c4cc(O)cc(F)c4)c4c(N)ncnc43)n(-c3ccccc3F)c(=O)c12`: the IC50 on PIK3CG (human) and on PIK3CD (Human) was less than 100 nM in each case.

For the molecule `Cc1cccc2cc(Cn3nc(-c4cc(O)cc(F)c4)c4c(N)ncnc43)n(-c3ccccc3C(C)C)c(=O)c12`, the concentration for half-maximal inhibition (IC50) against PIK3CG (human) and on PIK3CD (Human) was less than 100 nM each time.

On to `CC(=O)Nc1nc2ccc(-c3nn(Cc4cc5cccc(C)c5c(=O)n4C4CC4)c4ncnc(N)c34)cc2s1`, for which the half-maximal inhibitory concentration (IC50) at PIK3CA (human), against PIK3CD (Human) and at PIK3CB (Human) was less than 100 nM throughout.

Take `Cc1cccc2cc(Cn3nc(-c4ccc(Cl)c(O)c4)c4c(N)ncnc43)n(-c3ccccc3F)c(=O)c12`: the IC50 against PIK3CG (human) and against PIK3CD (Human) was less than 100 nM in each case.

With `Cc1cccc2cc(Cn3nc(I)c4c(N)ncnc43)n(-c3ccccc3C(C)C)c(=O)c12`, the half-maximal inhibitory concentration (IC50) against PIK3CG (human) and on PIK3CD (Human) was less than 100 nM throughout.
